“And” between values parts separate entries of the source, which are not always exact repeats. Equal values may be shown once.
Columns and labels:
[1] = tested on: CDK4/6; test: CDK4/6 inhibition in vitro and in vivo studies
[2] = tested on: Target lesions; test: Tumor response, Compound 1 with topotecan; type: in vivo, human; conditions: for Cycle 2 Target Lesion Sum: individual subjects
Procedure: In Cohort 2 there were 3 subjects who received 1.25 mg/m^2 of topotecan once daily on Days 1 to 5. In Cohort 3 there were 4 subjects who received 0.75 mg/m^2 of topotecan once daily on Days 1 to 5. […] Target lesions were summed and response tabulated as follows: […]

[3] = Repeat-dose IV toxicity in dogs; type: in vivo
Procedure: The magnitude and/or duration of this effect differed among cell lineages but was dose-related in all lineages. Effects on hematopoiesis were readily monitored by peripheral blood cell counts and were reversible when dosing stopped.
In both species, the toxicity profile was similar and the repeat-dose toxicity studies identified no observed adverse effect levels (NOAELs). […] This IV NOAEL was the basis for selecting a starting dose of 6 mg/m^2 for the first clinical trial, which is 1/10th of the lowest safe dose level in any animal study.

[4] = Compound 1 200 mg/m^2 with topotecan, 2 to 4 cycles

## CN1CCN(c2ccc(Nc3ncc4cc5n(c4n3)C3(CCCCC3)CNC5=O)nc2)CC1 [Compound 1, 2′-((5-(4-methylpiperazin-1-yl)pyridin-2-yl)amino)-7′,8′-dihydro-6′H-spiro[cyclohexane-1,9′-pyrazino[1′,2′:1,5]pyrrolo[2,3-d]pyrimidin]-6′-one]
[1]
  CDK4/6 inhibitor characterisation: highly potent and selective CDK4/6 inhibitor
[2]; Compound 1 200 mg/m^2 followed by 1.25 mg/m^2 Topotecan
  Cycle 2 Target Lesion Sum: 22 and 123
[2]; Compound 1 200 mg/m^2 followed by .75 mg/m^2 Topotecan
  Cycle 2 Target Lesion Sum: 157
[2]; [4]
  subjects with partial responses: 3 subjects
  subjects with stable disease: 3 subjects
[3]; dog, in vivo, 7 days
  dose with clinically significant leukopenia: 300 mg/m^2
[3]; dogs, daily doses for 6 days
  dose leading to morbidity and mortality: 900 mg/m^2

Source: patent US20160220569A1, “CDK4/6 Inhibitor Dosage Formulations For The Protection Of Hematopoietic Stem And Progenitor Cells During Chemotherapy” (G1 Therapeutics, Inc., priority 2015, published 2016)
